Reference: US11319303B2 (WIGEN BIOMEDICINE TECHNOLOGY (SHANGHAI) CO., LTD., priority 2017, dated 2022)

Biological target: LC3B (Homo sapiens, UniProt Q9GZQ8)
Assay: Fluorescence Polarization (FP) Assay: displacement of FITC-labeled peptide from GST-LC3B
Assay type: binding
Details: not given
Procedure: The compounds of the present invention for regulating the autophagy-related protein LC3B were tested by Fluorescence Polarization (FP) Assay.
Fluorescence Polarization (FP) Assay Test

In the case of CN1C(=O)C(=CNCCN2CCN(CCO)CC2)C(=O)N(C)C1=O [Compound 10, 5-(((2-(4-(2-hydroxyethyl)piperazin-1-yl)ethyl)amino)methylene)-1,3-dimethylpyrimidine-2,4,6(1H,3H,5H)-trione], the IC50 is reported as 100 to 1000 µM.

Same assay, conditions: Fluorescence Polarization assay; GST-LC3B 180 nM, FITC-labeled peptide 18 nM, 25° C.; read-out: IC50

CC1(C)OC(=O)C(=CNCCN2CCN(CCO)CC2)C(=O)O1 [Compound 1, 5-(((2-(4-(2-hydroxyethyl)piperazin-1-yl)ethyl)amino)methylene)-2,2-dimethyl-1,3-dioxane-4,6-dione] and O=C1COCC(=O)C1=CNCCN1CCN(CCO)CC1 [Compound 12, 4-(((2-(4-(2-hydroxyethyl)piperazin-1-yl)ethyl)amino)methylene)-2H-pyran-3,5(4H,6H)-dione] fall in the same range of IC50: 100 to 1000 µM for the first, 100 to 1000 µM for the second.

NC=C1C(=O)CC(c2ccccc2)CC1=O (stereo not drawn) [Compound 2, 2-(aminomethylene)-5-phenylcyclohexane-1,3-dione] and CSC=C1C(=O)CC(c2ccccc2)CC1=O (stereo not drawn) [Compound 4A, 2-((methylthio)methylene)-5-phenylcyclohexane-1,3-dione] fall in the same range of IC50: 3 to 15 µM for the first, 3 to 15 µM for the second.

First: O=C1CC(c2ccccc2)CC(=O)C1=CNc1cccnc1 (stereo not drawn) [Compound 7, 5-phenyl-2-((pyridin-3-ylamino)methylene) cyclohexane-1,3-dione]
Second: O=C1CC(c2ccccc2)CC(=O)C1=CNCCN1CCN(CCO)CC1 (stereo not drawn) [Compound 8, 2-(((2-(4-(2-hydroxyethyl)piperazin-1-yl)ethyl)amino)methylene)-5-phenylcyclohexane-1,3-dione]
The IC50 of the first is higher: 3 to 15 µM for the first, < 3 µM for the second.

First: O=C1C(=CNCCN2CCN(CCO)CC2)C(=O)c2ccccc21 [Compound 9, 2-(((2-(4-(2-hydroxyethyl)piperazin-1-yl)ethyl)amino)methylene)-1H-indene-1,3(2H)-dione]
Second: Cc1ccccc1C1CC(=O)C(=CNCCN2CCN(CCO)CC2)C(=O)C1 (stereo not drawn) [Compound 28, 2-(((2-(4-(2-hydroxyethyl)piperazin-1-yl)ethyl)amino)methylene)-5-(o-tolyl)cyclohexane-1,3-dione]
The IC50 of the first is higher: 100 to 1000 µM for the first, 3 to 15 µM for the second. The second is the more potent here.

O=C1CCCC(=O)C1=CNCCN1CCN(CCO)CC1 [Compound 11, 2-(((2-(4-(2-hydroxyethyl)piperazin-1-yl)ethyl)amino)methylene) cyclohexane-1,3-dione] and CC1CC(=O)C(=CNCCN2CCN(CCO)CC2)C(=O)C1 (stereo not drawn) [Compound 14, 2-(((2-(4-(2-hydroxyethyl)piperazin-1-yl)ethyl)amino)methylene)-5-methylcyclohexane-1,3-dione] fall in the same range of IC50: 100 to 1000 µM for the first, 100 to 1000 µM for the second.

COc1cc(OC)c2c(c1Cl)O[C@@]1(C(=O)/C(=C\NCCN3CCN(CCO)CC3)C(=O)C[C@H]1C)C2=O [Compound 15, (2R,6′R)-7-chloro-3′-(((2-(4-(2-hydroxyethyl)piperazin-1-yl)ethyl)amino)methylene)-4,6-dimethoxy-6′-methyl-3H-spiro[benzofuran-2,1′-cyclohexane]-2′,3,4′-trione] and COc1cc(C2CC2)c(C2CC(=O)C(=CNCCN3CCN(CCO)CC3)C(=O)C2)cc1OC (stereo not drawn) [Compound 23, 5-(2-cyclopropyl-4,5-dimethoxyphenyl)-2-(((2-(4-(2-hydroxyethyl)piperazin-1-yl)ethyl)amino)methylene) cyclohexane-1,3-dione] fall in the same range of IC50: 3 to 15 µM for the first, 3 to 15 µM for the second.

O=C1CC(c2ccnc3[nH]ccc23)CC(=O)C1=CNCCN1CCN(CCO)CC1 (stereo not drawn) [Compound 17, 2-(((2-(4-(2-hydroxyethyl)piperazin-1-yl)ethyl)amino)methylene)-5-(1H-pyrrolo[2,3-b]pyridin-4-yl)cyclohexane-1,3-dione] and O=C1CC(c2c[nH]c3ncccc23)CC(=O)C1=CNCCN1CCN(CCO)CC1 (stereo not drawn) [Compound 18, 2-(((2-(4-(2-hydroxyethyl)piperazin-1-yl)ethyl)amino)methylene)-5-(1H-pyrrolo[2,3-b]pyridin-3-yl)cyclohexane-1,3-dione] fall in the same range of IC50: 3 to 15 µM for the first, 3 to 15 µM for the second.

First: COCCn1ccc2c(C3CC(=O)C(=CNCCN4CCN(CCO)CC4)C(=O)C3)ccnc21 (stereo not drawn) [Compound 19, 2-(((2-(4-(2-hydroxyethyl)piperazin-1-yl)ethyl)amino)methylene)-5-(1-(2-methoxyethyl)-1H-pyrrolo[2,3-b]pyridin-4-yl)cyclohexane-1,3-dione]
Second: COCCOc1ccccc1C1CC(=O)C(=CNCCN2CCN(CCO)CC2)C(=O)C1 (stereo not drawn) [Compound 42, 2-(((2-(4-(2-hydroxyethyl)piperazin-1-yl)ethyl)amino)methylene)-5-(2-(2-methoxyethoxy)phenyl) cyclohexane-1,3-dione]
The IC50 of the first is higher: 15 to 100 µM for the first, 3 to 15 µM for the second.

First: O=C1CC(c2cnc3c(ccc4cccnc43)c2)CC(=O)C1=CNCCN1CCN(CCO)CC1 (stereo not drawn) [Compound 20, 2-(((2-(4-(2-hydroxyethyl)piperazin-1-yl)ethyl)amino)methylene)-5-(1,10-phenanthrolin-3-yl)cyclohexane-1,3-dione]
Second: O=C1CC(c2ccc(-c3ncnc4[nH]cnc34)cc2)CC(=O)C1=CNCCN1CCN(CCO)CC1 (stereo not drawn) [Compound 33, 5-(4-(9H-purin-6-yl)phenyl)-2-(((2-(4-(2-hydroxyethyl)piperazin-1-yl)ethyl)amino)methylene)cyclohexane-1,3-dione]
The IC50 of the first is higher: 100 to 1000 µM for the first, 15 to 100 µM for the second. The second is the more potent here.

Compared with O=C1CC(c2ccc(Sc3ccccc3)cc2)CC(=O)C1=CNCCN1CCN(CCO)CC1 (stereo not drawn) [Compound 21, 2-(((2-(4-(2-hydroxyethyl)piperazin-1-yl)ethyl)amino)methylene)-5-(4-(phenylthio)phenyl) cyclohexane-1,3-dione], O=C1CC(c2ccc(O)cc2)CC(=O)C1=CNCCN1CCN(CCO)CC1 (stereo not drawn) [Compound 40, 2-(((2-(4-(2-hydroxyethyl)piperazin-1-yl)ethyl)amino)methylene)-5-(4-hydroxyphenyl) cyclohexane-1,3-dione] is lower in IC50: 15 to 100 µM for the first, < 3 µM for the second. The second is the more potent here.

Cn1nnc(-c2ccc(C3CC(=O)C(=CNCCN4CCN(CCO)CC4)C(=O)C3)cc2)n1 (stereo not drawn) [Compound 22, 2-(((2-(4-(2-hydroxyethyl)piperazin-1-yl)ethyl)amino)methylene)-5-(4-(2-methyl-2H-tetrazol-5-yl)phenyl) cyclohexane-1,3-dione] and CN1CCN(c2ccc(C3CC(=O)C(=CNCCN4CCN(CCO)CC4)C(=O)C3)cc2)CC1 (stereo not drawn) [Compound 36, 2-(((2-(4-(2-hydroxyethyl)piperazin-1-yl)ethyl)amino)methylene)-5-(4-(4-methylpiperazin-1-yl)phenyl) cyclohexane-1,3-dione] fall in the same range of IC50: 100 to 1000 µM for the first, 100 to 1000 µM for the second.

O=C1CC(c2c[nH]c3cccc(F)c23)CC(=O)C1=CNCCN1CCN(CCO)CC1 (stereo not drawn) [Compound 24, 5-(4-fluoro-1H-indol-3-yl)-2-(((2-(4-(2-hydroxyethyl)piperazin-1-yl)ethyl)amino)methylene) cyclohexane-1,3-dione] and O=C1CC(c2c[nH]c3ccccc23)CC(=O)C1=CNCCN1CCN(CCO)CC1 (stereo not drawn) [Compound 39, 2-(((2-(4-(2-hydroxyethyl)piperazin-1-yl)ethyl)amino)methylene)-5-(1H-indol-3-yl) cyclohexane-1,3-dione] cannot be ordered by IC50: < 3 µM for the first, < 3 µM for the second.

Compared with O=C1CC(c2cnc3c(N4CCOCC4)nccn23)CC(=O)C1=CNCCN1CCN(CCO)CC1 (stereo not drawn) [Compound 25, 2-(((2-(4-(2-hydroxyethyl)piperazin-1-yl)ethyl)amino)methylene)-5-(8-morpholinoimidazo [1,2-a]pyrazin-3-yl) cyclohexane-1,3-dione], O=C1CC(c2ccc(N3CCOCC3)cc2)CC(=O)C1=CNCCN1CCN(CCO)CC1 (stereo not drawn) [Compound 35, 2-(((2-(4-(2-hydroxyethyl)piperazin-1-yl)ethyl)amino)methylene)-5-(4-morpholinophenyl) cyclohexane-1,3-dione] is lower in IC50: 100 to 1000 µM for the first, 15 to 100 µM for the second. The second is the more potent here.

COc1cc2ncnc(C3CC(=O)C(=CNCCN4CCN(CCO)CC4)C(=O)C3)c2cc1OC (stereo not drawn) [Compound 26, 5-(6,7-dimethoxyquinazolin-4-yl)-2-(((2-(4-(2-hydroxyethyl)piperazin-1-yl)ethyl)amino)methylene) cyclohexane-1,3-dione] and O=C1CC(c2ncnc3sccc23)CC(=O)C1=CNCCN1CCN(CCO)CC1 (stereo not drawn) [Compound 27, 2-(((2-(4-(2-hydroxyethyl)piperazin-1-yl)ethyl)amino)methylene)-5-(thieno[2,3-d]pyrimidin-4-yl)cyclohexane-1,3-dione] fall in the same range of IC50: 15 to 100 µM for the first, 15 to 100 µM for the second.

First: CC1(c2ccccc2)CC(=O)C(=CNCCN2CCN(CCO)CC2)C(=O)C1 (stereo not drawn) [Compound 29, 2-(((2-(4-(2-hydroxyethyl)piperazin-1-yl)ethyl)amino)methylene)-5-methyl-5-phenylcyclohexane-1,3-dione]
Second: O=C1CC(COc2ccccc2)CC(=O)C1=CNCCN1CCN(CCO)CC1 (stereo not drawn) [Compound 31, 2-(((2-(4-(2-hydroxyethyl)piperazin-1-yl)ethyl)amino)methylene)-5-(phenoxymethyl) cyclohexane-1,3-dione]
The IC50 of the first is higher: 100 to 1000 µM for the first, 3 to 15 µM for the second.

First: CC1(C)O[C@@H]2[C@H](O1)[C@@H](C1CC(=O)C(=CNCCN3CCN(CCO)CC3)C(=O)C1)O[C@H]2n1cnc2c(N3CCOCC3)ncnc21 (stereo partly drawn) [Compound 30, 5-((3aR,4R,6R,6aR)-2,2-dimethyl-6-(6-morpholino-9H-purin-9-yl)tetrahydrofuro[3,4-d][1,3]dioxol-4-yl)-2-(((2-(4-(2-hydroxyethyl)piperazin-1-yl)ethyl)amino)methylene) cyclohexane-1,3-dione]
Second: O=C1CC(c2cccs2)CC(=O)C1=CNCCN1CCN(CCO)CC1 (stereo not drawn) [Compound 37, 2-(((2-(4-(2-hydroxyethyl)piperazin-1-yl)ethyl)amino)methylene)-5-(thiophen-2-yl) cyclohexane-1,3-dione]
The IC50 of the first is higher: 100 to 1000 µM for the first, < 3 µM for the second.

First: O=C1CC(COc2cccc(F)c2)CC(=O)C1=CNCCN1CCN(CCO)CC1 (stereo not drawn) [Compound 32, 5-((3-fluorophenoxy)methyl)-2-(((2-(4-(2-hydroxyethyl)piperazin-1-yl)ethyl)amino)methylene) cyclohexane-1,3-dione]
Second: COCCOCCOc1cccc(C2CC(=O)C(=CNCCN3CCN(CCO)CC3)C(=O)C2)c1 (stereo not drawn) [Compound 34, 2-(((2-(4-(2-hydroxyethyl)piperazin-yl)ethyl)amino)methylene)-5-(3-(2-(2-methoxyethoxy)ethoxy)phenyl)cyclohexane-1,3-dione]
The IC50 of the first is higher: 3 to 15 µM for the first, < 3 µM for the second.

With COCCOCCOc1ccccc1C1CC(=O)C(=CNCCN2CCN(CCO)CC2)C(=O)C1 (stereo not drawn) [Compound 41] the IC50 was 3 to 15 µM.
